Tested on: B16-F10 tumours
Assay: PET/CT imaging of B16-F10 tumour-bearing mice
Type: in vivo, C57BL/6J mice
Protocol: PET imaging experiments were conducted using a preclinical micro PET/CT scanner (Siemens inveon). For static PET scan, each tumour bearing mouse was injected with 4-6 MBq of ^68Ga-labeled CCZ01099 via tail vein under anesthesia. After the injection, mice were allowed to recover and roam freely in their cages. At 1 or 2 h p.i., the mice were sedated again with 2% isoflurane inhalation and positioned in the scanner, and kept warm by a heating pad. A 10 min baseline CT scan using 60 kV X-rays at 500 μA was obtained for localization and attenuation correction after segmentation for reconstructing the PET images. A single 12 min static PET scan was acquired following the CT scan. The mice were euthanized using CO2 inhalation after imaging.

Tumour visualization on PET images (1 h and 2 h p.i.): Tumours were clearly visualized
Tumour uptake on PET with co-injection of MC1R-specific inhibitor BMS 470539 (1 h p.i., 0.5 mg BMS 470539): tumour uptake was abolished
SMILES: CCCC[C@H](NC(=O)CN1CCC(NC(=O)CN2CCN(CC(=O)O)CCN(CC(=O)O)CCN(CC(=O)O)CC2)CC1)C(=O)N[C@H]1CC(=O)NCCCC[C@@H](C(N)=O)N(C)C(=O)[C@H](Cc2c[nH]c3ccccc23)N(C)C(=O)[C@H](CCCNC(=N)N)N(C)C(=O)[C@@H](Cc2ccccc2)NC(=O)[C@H](Cc2c[nH]cn2)N(C)C1=O [^68Ga-labeled CCZ01099, metal not drawn]
